Test results: patent publication US9637483B2, “Heterocyclic compound” (TAKEDA PHARMACEUTICAL COMPANY LIMITED, priority 2013, dated 2017)

Tests used:
Assay type in all cases: biochemical
JAK3 = target: T1, JAK3 (Homo sapiens, UniProt P52333); experiment: JAK3 enzyme inhibition test (LANCE method); settings: 1 μM test compound; read-out: JAK3 enzyme inhibitory activity (%, 1 μM)
T1 construct: purchased Invitrogen
T1 sequence (P52333 1-1124): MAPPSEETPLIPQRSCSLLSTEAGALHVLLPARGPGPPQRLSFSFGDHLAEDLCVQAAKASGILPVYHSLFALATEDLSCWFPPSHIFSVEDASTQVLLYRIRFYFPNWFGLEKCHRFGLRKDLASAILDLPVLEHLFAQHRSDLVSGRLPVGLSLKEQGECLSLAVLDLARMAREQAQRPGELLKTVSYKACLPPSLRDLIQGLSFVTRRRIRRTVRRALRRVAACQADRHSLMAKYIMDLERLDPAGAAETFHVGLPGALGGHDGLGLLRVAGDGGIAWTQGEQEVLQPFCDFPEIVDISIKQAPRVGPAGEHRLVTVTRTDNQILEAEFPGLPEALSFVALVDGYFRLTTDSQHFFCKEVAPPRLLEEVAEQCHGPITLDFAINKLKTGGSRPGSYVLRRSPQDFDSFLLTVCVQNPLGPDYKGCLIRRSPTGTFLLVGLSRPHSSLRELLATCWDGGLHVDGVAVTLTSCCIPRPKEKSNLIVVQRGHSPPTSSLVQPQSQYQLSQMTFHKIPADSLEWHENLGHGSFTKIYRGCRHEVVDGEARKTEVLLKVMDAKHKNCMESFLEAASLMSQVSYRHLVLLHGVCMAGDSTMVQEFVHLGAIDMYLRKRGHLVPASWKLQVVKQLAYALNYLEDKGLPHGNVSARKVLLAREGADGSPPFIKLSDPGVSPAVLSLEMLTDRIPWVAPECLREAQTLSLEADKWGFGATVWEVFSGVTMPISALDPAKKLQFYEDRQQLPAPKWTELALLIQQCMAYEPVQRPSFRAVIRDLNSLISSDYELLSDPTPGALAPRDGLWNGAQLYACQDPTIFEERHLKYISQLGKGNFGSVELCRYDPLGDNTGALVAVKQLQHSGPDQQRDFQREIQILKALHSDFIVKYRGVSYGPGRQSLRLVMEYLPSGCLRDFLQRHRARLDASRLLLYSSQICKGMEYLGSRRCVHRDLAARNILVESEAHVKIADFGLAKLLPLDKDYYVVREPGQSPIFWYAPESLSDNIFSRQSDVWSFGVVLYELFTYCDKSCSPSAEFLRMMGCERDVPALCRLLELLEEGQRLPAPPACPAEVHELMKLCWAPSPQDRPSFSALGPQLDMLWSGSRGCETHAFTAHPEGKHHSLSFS
Method in brief: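 TR-FRET (LANCE) read: 1 h room-temperature reaction, EDTA quench, Eu-anti-phosphotyrosine antibody, emission 665 nm after 340 nm excitation. Added solutions held 12 ng/mL JAK3, 300 nM ULight-JAK1 substrate and 15 μM ATP (pH 7.5 HEPES). Activity expressed against no-enzyme wells defined as full inhibition.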

TYK2 = target: T2, TYK2 (Homo sapiens, UniProt P29597); experiment: TYK2 enzyme inhibition test (LANCE method); settings: 1 μM test compound; read-out: TYK2 enzyme inhibitory activity (%, 1 μM)
T2 construct: purchased Invitrogen
Method in brief: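 TR-FRET (LANCE) readout: after 1 h room-temperature kinase reaction, EDTA plus 4 nM Eu-labelled anti-phosphotyrosine antibody added, signal at 665 nm (340 nm excitation). Reaction combined TYK2, ULight-JAK1 substrate and ATP, prepared at 375 ng/mL, 300 nM and 30 μM before addition, in pH 7.5 HEPES/MgCl2 buffer; enzyme-free wells define full inhibition.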

JAK1 = target: T3, JAK1 (Homo sapiens, UniProt P23458); experiment: JAK1 enzyme inhibition test (LANCE method); settings: 1 μM test compound; read-out: JAK1 enzyme inhibitory activity (%, 1 μM)
T3 construct: purchased Invitrogen
Method in brief: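 Inhibition expressed against no-enzyme wells (100% inhibition), from time-resolved fluorescence at 665 nm after Eu-anti-phosphotyrosine antibody/EDTA detection. Kinase reaction ran 1 h at room temperature, pH 7.5 HEPES buffer, ULight-JAK1 substrate and ATP diluted to 300 nM and 150 μM before addition.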

JAK2 = target: T4, JAK2 (Homo sapiens, UniProt O60674); experiment: JAK2 enzyme inhibition test (LANCE method); settings: 1 μM test compound; read-out: JAK2 enzyme inhibitory activity (%, 1 μM)
T4 construct: purchased Invitrogen
Method in brief: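 TR-FRET (LANCE) read-out, ex 340/em 665 nm with 100 μs delay, after 1 hr room-temperature detection with europium anti-phosphotyrosine antibody and 20 mM EDTA. The preceding 1 hr kinase reaction combined JAK2, ULight-JAK1 substrate and ATP, added as 6 ng/mL, 300 nM and 45 μM solutions; enzyme-free wells defined 100% inhibition.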

T3 sequence (P23458 whole entry): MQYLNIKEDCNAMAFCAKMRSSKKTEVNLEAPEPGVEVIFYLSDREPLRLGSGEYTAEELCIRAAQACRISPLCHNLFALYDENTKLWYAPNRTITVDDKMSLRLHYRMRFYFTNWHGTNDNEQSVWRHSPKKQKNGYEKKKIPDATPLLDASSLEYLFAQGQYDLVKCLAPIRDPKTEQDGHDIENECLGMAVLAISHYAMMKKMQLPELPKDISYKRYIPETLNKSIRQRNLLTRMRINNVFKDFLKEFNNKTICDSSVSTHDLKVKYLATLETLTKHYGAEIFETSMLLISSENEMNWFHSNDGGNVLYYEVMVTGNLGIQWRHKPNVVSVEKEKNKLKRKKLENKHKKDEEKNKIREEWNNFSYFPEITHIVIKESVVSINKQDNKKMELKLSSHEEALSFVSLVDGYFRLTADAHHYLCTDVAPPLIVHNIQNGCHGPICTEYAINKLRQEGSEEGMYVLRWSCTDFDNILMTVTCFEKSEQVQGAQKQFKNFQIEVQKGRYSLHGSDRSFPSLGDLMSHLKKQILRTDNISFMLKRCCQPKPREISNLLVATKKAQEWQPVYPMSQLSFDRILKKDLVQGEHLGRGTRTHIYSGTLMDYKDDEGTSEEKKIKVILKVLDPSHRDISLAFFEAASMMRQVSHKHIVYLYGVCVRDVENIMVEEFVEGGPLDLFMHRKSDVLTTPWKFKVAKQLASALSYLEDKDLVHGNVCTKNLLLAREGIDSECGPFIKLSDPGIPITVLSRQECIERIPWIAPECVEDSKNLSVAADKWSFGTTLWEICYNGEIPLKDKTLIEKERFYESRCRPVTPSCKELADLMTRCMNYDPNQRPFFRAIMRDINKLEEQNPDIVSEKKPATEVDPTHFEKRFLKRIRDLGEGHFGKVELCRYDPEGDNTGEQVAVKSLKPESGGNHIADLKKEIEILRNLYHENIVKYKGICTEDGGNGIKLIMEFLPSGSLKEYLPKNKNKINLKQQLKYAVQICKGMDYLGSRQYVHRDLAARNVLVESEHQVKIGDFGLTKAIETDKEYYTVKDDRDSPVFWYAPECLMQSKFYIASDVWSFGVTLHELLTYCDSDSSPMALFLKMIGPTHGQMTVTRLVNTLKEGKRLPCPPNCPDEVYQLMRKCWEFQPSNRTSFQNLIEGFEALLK
T2 sequence (P29597 whole entry): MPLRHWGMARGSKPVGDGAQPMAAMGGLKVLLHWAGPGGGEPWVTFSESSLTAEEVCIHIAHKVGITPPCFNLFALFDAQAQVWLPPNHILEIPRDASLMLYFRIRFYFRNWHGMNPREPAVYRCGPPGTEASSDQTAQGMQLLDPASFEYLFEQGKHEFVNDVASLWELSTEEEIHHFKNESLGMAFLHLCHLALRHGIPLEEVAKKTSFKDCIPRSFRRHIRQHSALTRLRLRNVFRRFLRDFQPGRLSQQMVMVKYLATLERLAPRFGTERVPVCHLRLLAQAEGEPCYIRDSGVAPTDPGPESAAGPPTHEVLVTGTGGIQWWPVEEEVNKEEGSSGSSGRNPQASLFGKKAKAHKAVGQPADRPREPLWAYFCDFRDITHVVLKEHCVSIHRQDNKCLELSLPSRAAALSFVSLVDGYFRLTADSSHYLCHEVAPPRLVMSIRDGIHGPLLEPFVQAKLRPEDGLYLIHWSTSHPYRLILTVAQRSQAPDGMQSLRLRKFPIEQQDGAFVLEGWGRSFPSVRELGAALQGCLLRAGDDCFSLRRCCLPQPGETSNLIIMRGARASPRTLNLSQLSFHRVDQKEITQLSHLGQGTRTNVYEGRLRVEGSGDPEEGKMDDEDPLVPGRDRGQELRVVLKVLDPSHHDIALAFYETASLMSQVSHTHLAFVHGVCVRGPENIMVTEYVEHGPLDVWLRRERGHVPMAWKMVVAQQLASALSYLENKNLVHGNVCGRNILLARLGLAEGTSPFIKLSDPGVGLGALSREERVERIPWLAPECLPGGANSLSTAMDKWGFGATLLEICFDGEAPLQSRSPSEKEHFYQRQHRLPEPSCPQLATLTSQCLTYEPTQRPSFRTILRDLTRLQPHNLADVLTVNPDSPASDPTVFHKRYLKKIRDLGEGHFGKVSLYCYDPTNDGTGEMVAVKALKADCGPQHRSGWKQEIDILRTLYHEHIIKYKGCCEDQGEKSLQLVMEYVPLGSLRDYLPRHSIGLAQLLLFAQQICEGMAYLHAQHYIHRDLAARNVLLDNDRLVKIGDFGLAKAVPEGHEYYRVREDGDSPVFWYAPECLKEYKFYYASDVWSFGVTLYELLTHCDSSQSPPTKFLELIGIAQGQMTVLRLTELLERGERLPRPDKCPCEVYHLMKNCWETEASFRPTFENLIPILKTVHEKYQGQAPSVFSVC
T4 sequence (O60674 whole entry): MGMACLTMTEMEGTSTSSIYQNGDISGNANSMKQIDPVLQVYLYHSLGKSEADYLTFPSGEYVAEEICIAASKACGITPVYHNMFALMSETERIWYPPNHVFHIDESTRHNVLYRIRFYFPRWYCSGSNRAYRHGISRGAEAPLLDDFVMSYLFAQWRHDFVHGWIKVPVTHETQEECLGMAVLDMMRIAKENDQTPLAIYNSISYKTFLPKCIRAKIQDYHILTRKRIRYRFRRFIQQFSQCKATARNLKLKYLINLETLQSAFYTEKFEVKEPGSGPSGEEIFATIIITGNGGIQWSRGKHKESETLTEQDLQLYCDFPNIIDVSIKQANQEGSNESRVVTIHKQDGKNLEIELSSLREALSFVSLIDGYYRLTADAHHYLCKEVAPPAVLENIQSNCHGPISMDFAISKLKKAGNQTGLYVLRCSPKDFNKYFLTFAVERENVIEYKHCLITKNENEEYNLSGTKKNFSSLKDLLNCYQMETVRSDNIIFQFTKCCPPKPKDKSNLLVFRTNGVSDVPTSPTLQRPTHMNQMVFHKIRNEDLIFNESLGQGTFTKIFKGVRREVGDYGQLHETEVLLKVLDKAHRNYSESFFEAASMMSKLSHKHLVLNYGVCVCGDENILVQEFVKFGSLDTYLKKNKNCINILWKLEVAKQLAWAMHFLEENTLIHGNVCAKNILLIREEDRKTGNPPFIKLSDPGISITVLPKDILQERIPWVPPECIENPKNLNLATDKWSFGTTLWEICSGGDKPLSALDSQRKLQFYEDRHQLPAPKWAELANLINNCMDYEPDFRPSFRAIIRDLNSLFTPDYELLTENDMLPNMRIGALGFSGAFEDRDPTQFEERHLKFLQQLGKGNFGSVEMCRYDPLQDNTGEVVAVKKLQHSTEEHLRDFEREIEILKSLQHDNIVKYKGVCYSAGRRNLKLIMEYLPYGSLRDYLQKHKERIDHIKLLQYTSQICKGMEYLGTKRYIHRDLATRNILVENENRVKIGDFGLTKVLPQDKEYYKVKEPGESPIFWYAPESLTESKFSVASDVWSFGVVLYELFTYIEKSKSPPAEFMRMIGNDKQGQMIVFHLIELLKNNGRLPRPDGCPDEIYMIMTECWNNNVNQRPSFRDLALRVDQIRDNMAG

inhibition at 1 µM (JAK3) [%] | inhibition at 1 µM (TYK2) [%] | inhibition at 1 µM (JAK1) [%] | inhibition at 1 µM (JAK2) [%] | Structure (SMILES)
99 | 99 | 98 | 98 | CN(C)[C@@H]1CCN(c2cc(-c3cn(-c4c(F)cccc4F)c(=O)c4c(N)n[nH]c34)nn2C)C1 [Example 125, 3-amino-5-(2,6-difluorophenyl)-7-(5-((3R)-3-(dimethylamino)pyrrolidin-1-yl)-1-methyl-1H-pyrazol-3-yl)-1,5-dihydro-4H-pyrazolo[4,3-c]pyridin-4-one]
99 | 98 | 92 | 98 | CN(C)C[C@H]1CCCN1c1cc(-c2cn(-c3c(F)cccc3F)c(=O)c3c(N)n[nH]c23)nn1C [Example 126, 3-amino-5-(2,6-difluorophenyl)-7-(5-((2R)-2-((dimethylamino)methyl)pyrrolidin-1-yl)-1-methyl-1H-pyrazol-3-yl)-1,5-dihydro-4H-pyrazolo[4,3-c]pyridin-4-one]
100 | 100 | 99 | 99 | Cn1nc(-c2cn(-c3c(F)cccc3F)c(=O)c3c(N)n[nH]c23)cc1N1CCC(C)(C#N)CC1 [Example 127, 1-(3-(3-amino-5-(2,6-difluorophenyl)-4-oxo-4,5-dihydro-1H-pyrazolo[4,3-c]pyridin-7-yl)-1-methyl-1H-pyrazol-5-yl)-4-methylpiperidine-4-carbonitrile]
99 | 100 | 98 | 98 | COC[C@H]1CCCN1c1cc(-c2cn(-c3c(F)cccc3F)c(=O)c3c(N)n[nH]c23)nn1C [Example 128, 3-amino-5-(2,6-difluorophenyl)-7-(5-((2R)-2-(methoxymethyl)pyrrolidin-1-yl)-1-methyl-1H-pyrazol-3-yl)-1,5-dihydro-4H-pyrazolo[4,3-c]pyridin-4-one]
99 | 100 | 97 | 99 | COC1(c2cc(-c3cn(-c4c(F)cccc4F)c(=O)c4c(N)n[nH]c34)nn2C)CCS(=O)(=O)CC1 [Example 129, 3-amino-5-(2,6-difluorophenyl)-7-(5-(4-methoxy-1,1-dioxidotetrahydro-2H-thiopyran-4-yl)-1-methyl-1H-pyrazol-3-yl)-1,5-dihydro-4H-pyrazolo[4,3-c]pyridin-4-one]
99 | 101 | 96 | 98 | COC1(c2cc(-c3cn(-c4c(F)cccc4F)c(=O)c4c(N)n[nH]c34)nn2C)CN(C(=O)C(C)C)C1 [Example 130, 3-amino-5-(2,6-difluorophenyl)-7-(5-(1-isobutyryl-3-methoxyazetidin-3-yl)-1-methyl-1H-pyrazol-3-yl)-1,5-dihydro-4H-pyrazolo[4,3-c]pyridin-4-one]
99 | 100 | 95 | 98 | COC1(c2cc(-c3cn(-c4c(F)cccc4F)c(=O)c4c(N)n[nH]c34)nn2C)CN(C(C)=O)C1 [Example 131, 7-(5-(1-acetyl-3-methoxyazetidin-3-yl)-1-methyl-1H-pyrazol-3-yl)-3-amino-5-(2,6-difluorophenyl)-1,5-dihydro-4H-pyrazolo[4,3-c]pyridin-4-one]
99 | 100 | 94 | 98 | COC1(c2cc(-c3cn(-c4c(F)cccc4F)c(=O)c4c(N)n[nH]c34)nn2C)CN(S(C)(=O)=O)C1 [Example 132, 3-amino-5-(2,6-difluorophenyl)-7-(5-(3-methoxy-1-(methylsulfonyl)azetidin-3-yl)-1-methyl-1H-pyrazol-3-yl)-1,5-dihydro-4H-pyrazolo[4,3-c]pyridin-4-one]
